Counter-ions that a name gives are not always drawn.

This note sets out measurements from patent publication US5026715A, “2-guanidino-4-arylthiazoles for treatment of peptic ulcers” (Pfizer Inc., priority 1989, dated 1991).

Experiment [1] has as its system ethanol-induced gastric ulceration in rats. The experiment is described as follows: Inhibition of ethanol-induced gastric ulceration in rats (cytoprotective activity). Format: in vivo, rat. To be noted: dose of 30 mg/kg. An excerpt: The in vivo utility of the present compounds as antiulcer agents is also particularly shown by their cytoprotective activity.
Experiment [2] concerns the target T1, H^+ / K^+ ATPase isolated from canine gastric mucosa (Canis lupus familiaris, UniProt P50996).
T1 construct: ATPase isolated from canine gastric mucosa; from tissue; host or cells: canine gastric mucosa
The experiment is described as follows: Inhibition of H+/K+ ATPase isolated from canine gastric mucosa. Format: biochemical. Conditions: preincubated 45 minutes at 37° C., pH 7.5, drugs preferably acid activated in 1:1 dimethylsulfoxide:0.02N HCl, 30 minutes, read-out: IC50 (the concentration which inhibits the enzyme to the extent of 50%). On the procedure: The utility of the present compounds as antiulcer agents is reflected in vitro by their inhibition of H^+ / K^+ ATPase isolated from canine gastric mucosa. The enzyme activity was assayed according to Beil et al., Brit. J. Pharmacol. 82, 651-657 (1984) with slight modifications. The enzyme (1-2 micrograms) was preincubated at 37° C. for 45 minutes with a medium containing 2×10^-3 M MgCl2, 0.05M Tris-Cl buffer (pH 7.5) with or without 0.01M KCl, and the acid activated test drug in a final volume of 0.590 ml. The reaction was started by the addition of […] of ATP (final concentration 3×10^-3 M). The reaction was terminated by adding trichloroacetic acid to a concentration of 4.2%. Liberated inorganic phosphate was determined using Fiske and Subbarow Reducer available commercially (e.g., from Sigma Chemical Co., P.O. Box 14508, St. Louis, Mo. 63178, U.S.A.). In this test the drugs are preferably first acid activated by incubating in 1:1 dimethylsulfoxide:0.02N HCl at 37° C. for 30 minutes.

T1 sequence (P50996 2-1034 limits assumed): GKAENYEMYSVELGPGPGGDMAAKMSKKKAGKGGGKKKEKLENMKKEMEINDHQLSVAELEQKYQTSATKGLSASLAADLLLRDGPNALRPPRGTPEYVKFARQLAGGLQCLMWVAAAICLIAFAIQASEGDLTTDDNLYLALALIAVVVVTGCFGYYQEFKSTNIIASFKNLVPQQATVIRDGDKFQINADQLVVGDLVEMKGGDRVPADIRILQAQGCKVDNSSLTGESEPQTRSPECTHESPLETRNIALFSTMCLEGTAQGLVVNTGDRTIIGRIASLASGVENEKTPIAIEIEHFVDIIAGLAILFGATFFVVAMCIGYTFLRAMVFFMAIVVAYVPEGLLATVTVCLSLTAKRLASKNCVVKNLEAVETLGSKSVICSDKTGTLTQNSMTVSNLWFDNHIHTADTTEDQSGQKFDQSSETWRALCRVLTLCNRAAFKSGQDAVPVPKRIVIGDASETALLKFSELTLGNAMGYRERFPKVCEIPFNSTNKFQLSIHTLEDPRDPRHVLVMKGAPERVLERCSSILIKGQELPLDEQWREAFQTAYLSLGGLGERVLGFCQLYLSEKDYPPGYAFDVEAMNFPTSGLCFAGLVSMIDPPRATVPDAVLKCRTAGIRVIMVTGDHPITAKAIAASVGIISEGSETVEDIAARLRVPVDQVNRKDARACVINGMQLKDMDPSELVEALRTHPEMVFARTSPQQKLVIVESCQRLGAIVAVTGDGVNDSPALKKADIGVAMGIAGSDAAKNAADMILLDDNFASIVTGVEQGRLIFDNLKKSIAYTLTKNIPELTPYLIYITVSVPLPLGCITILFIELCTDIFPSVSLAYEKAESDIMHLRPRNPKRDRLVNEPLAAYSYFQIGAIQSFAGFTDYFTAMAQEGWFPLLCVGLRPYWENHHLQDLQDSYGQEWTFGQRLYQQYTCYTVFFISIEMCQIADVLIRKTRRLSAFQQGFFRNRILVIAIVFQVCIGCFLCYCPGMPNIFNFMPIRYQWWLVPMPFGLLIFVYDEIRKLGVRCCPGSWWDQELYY
T1 sequence (P33704 whole entry partner): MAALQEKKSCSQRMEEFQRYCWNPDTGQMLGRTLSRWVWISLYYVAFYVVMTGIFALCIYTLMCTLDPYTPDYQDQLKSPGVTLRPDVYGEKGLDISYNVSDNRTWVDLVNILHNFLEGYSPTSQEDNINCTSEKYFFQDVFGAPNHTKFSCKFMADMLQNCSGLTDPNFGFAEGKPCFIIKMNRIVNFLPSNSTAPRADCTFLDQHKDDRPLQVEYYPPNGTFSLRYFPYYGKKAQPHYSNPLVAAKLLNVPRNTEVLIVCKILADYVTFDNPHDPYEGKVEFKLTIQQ

Regarding `NC(=Nc1nc(-c2ccc[nH]2)cs1)NCc1ccccc1` [2-(N-benzylguanidino)-4-(pyrrol-2-yl)thiazole], the “inhibition of ethanol-induced gastric ulceration” value in experiment [1] worked out at 99%.

For the compound `Cc1cc(-c2csc(NC(=N)N)n2)c[nH]1` [2-guanidino-4-(2-methylpyrrol-4-yl)thiazole], in experiment [2], the IC50 worked out at 15 µM. The “inhibition of ethanol-induced gastric ulceration” value in experiment [1] was determined as 100%.

Turning to `N=C(NCc1ccccc1)Nc1nc(-c2c[nH]c3ccccc23)cs1` [4-(1H-Indol-3-yl)-2-(N-benzyl-N"-guanidino)thiazole Hydrochloride], the IC50 in experiment [2] was 2 µM.

With `COc1cccc(-c2csc(NC(=N)NCc3ccccc3)n2)c1` [4-(3-methoxyphenyl)-2-(N-benzylguanidino)thiazole], in experiment [2], the IC50 came to 10 µM.

For the compound `N=C(NCc1ccccc1)Nc1nc(-c2c[nH]c3ccc(Cl)cc23)cs1` [4-(5-chloro-1H-indol-3-yl)-2-(N-benzylguanidino)thiazole], the IC50 in experiment [2] was 0.6 µM.
